The results in this text go back to article PMC10176470, “Engaging a Non-catalytic Cysteine Residue Drives Potent and Selective Inhibition of Caspase-6” (Journal of the American Chemical Society, 2023).

What all share (assay): SILAC proteomics / in-gel fluorescence, competition of probe 13-t labeling by 3a
For experiment [1], the target named is proteins of HEK293T cells transiently overexpressing caspase-6 (Homo sapiens, UniProt P14868). The conditions noted are these: Comp; protein DARS P14868.
Experiment [2] has as its target proteins of HEK293T cells transiently overexpressing caspase-6 (Homo sapiens, UniProt P38646). The conditions noted are these: Comp; protein HSPA9 P38646.
In experiment [3] the target is proteins of HEK293T cells transiently overexpressing caspase-6 (Homo sapiens, UniProt P31946). The note with it: Comp; protein YWHAB P31946.
Chain of proteins of HEK293T cells transiently overexpressing caspase-6 (Homo sapiens, UniProt P31946) (P31946 whole entry): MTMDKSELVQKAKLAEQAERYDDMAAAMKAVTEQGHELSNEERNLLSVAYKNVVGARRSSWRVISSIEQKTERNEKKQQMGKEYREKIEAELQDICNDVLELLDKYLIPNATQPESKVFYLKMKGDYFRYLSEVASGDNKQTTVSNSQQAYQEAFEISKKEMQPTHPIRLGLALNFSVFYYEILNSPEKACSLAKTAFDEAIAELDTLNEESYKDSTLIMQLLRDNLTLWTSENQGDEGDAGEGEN
For experiment [4], the target named is proteins of HEK293T cells transiently overexpressing caspase-6 (Homo sapiens, UniProt P40938). The note with it: Comp; protein RFC3 P40938.
Chain of proteins of HEK293T cells transiently overexpressing caspase-6 (Homo sapiens, UniProt P40938) (P40938 whole entry): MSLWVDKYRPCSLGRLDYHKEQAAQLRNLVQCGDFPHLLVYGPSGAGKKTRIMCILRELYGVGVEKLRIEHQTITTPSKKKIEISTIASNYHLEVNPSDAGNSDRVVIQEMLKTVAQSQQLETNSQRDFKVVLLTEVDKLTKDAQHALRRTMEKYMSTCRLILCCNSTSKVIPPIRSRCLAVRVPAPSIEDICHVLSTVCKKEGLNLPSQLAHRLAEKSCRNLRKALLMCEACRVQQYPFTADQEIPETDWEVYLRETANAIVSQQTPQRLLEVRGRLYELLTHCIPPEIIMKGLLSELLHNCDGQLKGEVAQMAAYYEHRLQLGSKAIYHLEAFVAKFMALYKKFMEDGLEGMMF
In experiment [5] the target is proteins of HEK293T cells transiently overexpressing caspase-6 (Homo sapiens, UniProt P13804). The conditions noted are these: Comp; protein ETFA P13804.
Chain of proteins of HEK293T cells transiently overexpressing caspase-6 (Homo sapiens, UniProt P13804) (P13804 20-333): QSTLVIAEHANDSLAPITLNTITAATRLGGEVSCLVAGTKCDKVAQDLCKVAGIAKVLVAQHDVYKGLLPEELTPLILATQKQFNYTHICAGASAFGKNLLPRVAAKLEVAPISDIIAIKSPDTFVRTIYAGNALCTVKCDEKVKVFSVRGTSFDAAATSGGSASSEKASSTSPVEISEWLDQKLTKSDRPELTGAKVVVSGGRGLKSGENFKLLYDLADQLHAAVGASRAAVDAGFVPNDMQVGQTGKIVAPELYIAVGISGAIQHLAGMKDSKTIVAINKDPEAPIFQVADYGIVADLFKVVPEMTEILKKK
Experiment [6] addresses T1, proteins of HEK293T cells transiently overexpressing caspase-6 (Homo sapiens, UniProt P08243).
T1 sequence (P08243 1-561): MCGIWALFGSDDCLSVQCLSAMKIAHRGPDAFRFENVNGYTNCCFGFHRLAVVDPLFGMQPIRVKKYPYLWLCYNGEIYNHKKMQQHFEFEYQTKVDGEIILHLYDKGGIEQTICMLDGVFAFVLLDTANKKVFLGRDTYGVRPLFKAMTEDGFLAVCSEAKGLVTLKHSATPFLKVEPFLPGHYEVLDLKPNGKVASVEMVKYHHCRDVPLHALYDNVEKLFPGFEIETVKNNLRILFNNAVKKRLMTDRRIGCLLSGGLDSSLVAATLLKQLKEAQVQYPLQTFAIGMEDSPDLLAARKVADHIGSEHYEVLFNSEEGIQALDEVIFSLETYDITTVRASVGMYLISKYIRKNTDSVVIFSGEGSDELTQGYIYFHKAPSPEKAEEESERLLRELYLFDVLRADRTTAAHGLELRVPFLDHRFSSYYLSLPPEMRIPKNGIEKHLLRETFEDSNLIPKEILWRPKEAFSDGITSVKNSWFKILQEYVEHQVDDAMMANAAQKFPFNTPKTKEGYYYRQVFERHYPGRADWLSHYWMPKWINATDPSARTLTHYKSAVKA

The target of experiment [7] is proteins of HEK293T cells transiently overexpressing caspase-6 (Homo sapiens, UniProt P11021).
Chain of proteins of HEK293T cells transiently overexpressing caspase-6 (Homo sapiens, UniProt P11021) (P11021 19-654): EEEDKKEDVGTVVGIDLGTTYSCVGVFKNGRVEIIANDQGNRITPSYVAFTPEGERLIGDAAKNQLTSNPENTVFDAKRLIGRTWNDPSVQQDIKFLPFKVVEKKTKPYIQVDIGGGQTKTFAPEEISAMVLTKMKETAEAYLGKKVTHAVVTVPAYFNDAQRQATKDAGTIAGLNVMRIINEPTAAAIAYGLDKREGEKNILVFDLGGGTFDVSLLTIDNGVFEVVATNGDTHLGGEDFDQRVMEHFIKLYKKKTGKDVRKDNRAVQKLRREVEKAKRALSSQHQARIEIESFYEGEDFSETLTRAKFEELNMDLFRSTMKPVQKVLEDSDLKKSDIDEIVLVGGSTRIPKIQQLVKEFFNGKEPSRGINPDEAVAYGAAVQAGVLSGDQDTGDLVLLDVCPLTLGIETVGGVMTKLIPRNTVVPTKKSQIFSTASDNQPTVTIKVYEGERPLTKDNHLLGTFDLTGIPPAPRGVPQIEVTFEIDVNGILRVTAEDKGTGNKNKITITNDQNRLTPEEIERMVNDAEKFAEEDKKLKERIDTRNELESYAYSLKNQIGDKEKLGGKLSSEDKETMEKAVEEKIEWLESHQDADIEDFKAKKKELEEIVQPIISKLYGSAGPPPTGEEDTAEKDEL
The target of experiment [8] is proteins of HEK293T cells transiently overexpressing caspase-6 (Homo sapiens, UniProt Q9NR30). The conditions noted are these: Comp; protein DDX21 Q9NR30.
Chain of proteins of HEK293T cells transiently overexpressing caspase-6 (Homo sapiens, UniProt Q9NR30) (Q9NR30 whole entry): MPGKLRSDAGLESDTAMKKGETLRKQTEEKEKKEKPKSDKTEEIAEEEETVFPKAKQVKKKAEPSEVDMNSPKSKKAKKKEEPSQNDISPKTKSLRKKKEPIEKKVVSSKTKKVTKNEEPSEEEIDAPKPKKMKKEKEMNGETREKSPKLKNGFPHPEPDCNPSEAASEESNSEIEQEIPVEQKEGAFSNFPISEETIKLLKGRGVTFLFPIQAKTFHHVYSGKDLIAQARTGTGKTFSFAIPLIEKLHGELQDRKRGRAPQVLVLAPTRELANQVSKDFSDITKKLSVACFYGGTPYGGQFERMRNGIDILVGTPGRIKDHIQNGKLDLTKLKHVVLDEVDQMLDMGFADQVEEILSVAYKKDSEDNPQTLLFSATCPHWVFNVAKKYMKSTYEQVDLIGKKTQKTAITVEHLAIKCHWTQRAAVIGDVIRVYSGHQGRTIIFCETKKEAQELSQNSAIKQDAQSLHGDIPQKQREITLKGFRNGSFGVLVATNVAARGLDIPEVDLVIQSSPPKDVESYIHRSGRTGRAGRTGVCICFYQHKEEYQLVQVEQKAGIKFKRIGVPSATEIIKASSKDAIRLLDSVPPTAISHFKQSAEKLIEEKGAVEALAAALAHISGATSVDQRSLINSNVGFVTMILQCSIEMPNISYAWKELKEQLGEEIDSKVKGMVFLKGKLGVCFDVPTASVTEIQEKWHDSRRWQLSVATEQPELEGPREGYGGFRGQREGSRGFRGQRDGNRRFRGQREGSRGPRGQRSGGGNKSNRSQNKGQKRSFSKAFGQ
Experiment [9] has as its target proteins of HEK293T cells transiently overexpressing caspase-6 (Homo sapiens, UniProt P38919). The note with it: Comp; protein EIF4A3 P38919.
In experiment [10] the target is proteins of HEK293T cells transiently overexpressing caspase-6 (Homo sapiens, UniProt P07814). The note with it: Comp; protein EPRS P07814.
Chain of proteins of HEK293T cells transiently overexpressing caspase-6 (Homo sapiens, UniProt P07814) (P07814 whole entry): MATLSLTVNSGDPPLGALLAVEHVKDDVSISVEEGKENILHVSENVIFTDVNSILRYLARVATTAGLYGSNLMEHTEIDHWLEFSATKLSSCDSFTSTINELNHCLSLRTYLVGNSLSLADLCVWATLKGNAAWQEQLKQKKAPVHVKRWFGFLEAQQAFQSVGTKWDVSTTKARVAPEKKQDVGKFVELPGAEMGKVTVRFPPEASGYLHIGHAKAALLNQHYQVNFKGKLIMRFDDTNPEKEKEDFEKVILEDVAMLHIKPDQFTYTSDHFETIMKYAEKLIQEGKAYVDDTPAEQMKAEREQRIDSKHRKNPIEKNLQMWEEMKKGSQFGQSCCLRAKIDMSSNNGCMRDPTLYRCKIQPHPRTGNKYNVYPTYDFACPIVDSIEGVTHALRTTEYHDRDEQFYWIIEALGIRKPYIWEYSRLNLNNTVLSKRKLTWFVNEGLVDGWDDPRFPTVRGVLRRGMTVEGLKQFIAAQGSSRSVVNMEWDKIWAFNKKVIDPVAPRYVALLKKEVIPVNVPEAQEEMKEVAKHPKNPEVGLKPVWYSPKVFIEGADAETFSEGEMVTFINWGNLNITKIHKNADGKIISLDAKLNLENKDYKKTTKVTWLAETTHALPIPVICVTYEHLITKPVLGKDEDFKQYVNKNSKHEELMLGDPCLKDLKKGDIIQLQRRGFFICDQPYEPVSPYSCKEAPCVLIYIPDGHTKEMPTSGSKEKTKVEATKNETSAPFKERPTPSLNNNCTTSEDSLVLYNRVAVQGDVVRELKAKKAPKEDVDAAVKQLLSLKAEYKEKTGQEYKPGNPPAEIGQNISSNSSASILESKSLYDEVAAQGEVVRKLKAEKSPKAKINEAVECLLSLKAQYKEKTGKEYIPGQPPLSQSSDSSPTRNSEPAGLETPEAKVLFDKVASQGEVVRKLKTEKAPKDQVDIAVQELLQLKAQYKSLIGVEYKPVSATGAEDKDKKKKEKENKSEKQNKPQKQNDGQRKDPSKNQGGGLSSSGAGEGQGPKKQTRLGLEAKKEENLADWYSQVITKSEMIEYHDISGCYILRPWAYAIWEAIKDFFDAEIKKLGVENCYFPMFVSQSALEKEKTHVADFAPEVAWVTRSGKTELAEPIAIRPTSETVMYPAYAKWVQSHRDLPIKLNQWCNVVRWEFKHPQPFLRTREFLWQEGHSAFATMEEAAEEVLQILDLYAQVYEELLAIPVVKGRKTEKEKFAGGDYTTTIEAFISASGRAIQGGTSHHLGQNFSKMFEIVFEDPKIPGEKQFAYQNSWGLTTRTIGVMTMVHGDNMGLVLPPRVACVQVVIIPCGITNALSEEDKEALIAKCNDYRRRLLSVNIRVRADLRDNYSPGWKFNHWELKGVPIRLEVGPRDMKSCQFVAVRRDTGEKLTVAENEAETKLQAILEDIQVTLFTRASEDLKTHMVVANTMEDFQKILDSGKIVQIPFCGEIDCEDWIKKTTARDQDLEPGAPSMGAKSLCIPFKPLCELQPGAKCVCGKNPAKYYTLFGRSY
Experiment [11] deals with T2, proteins of HEK293T cells transiently overexpressing caspase-6 (Homo sapiens, UniProt Q9UQ80).
T2 sequence (Q9UQ80 1-394): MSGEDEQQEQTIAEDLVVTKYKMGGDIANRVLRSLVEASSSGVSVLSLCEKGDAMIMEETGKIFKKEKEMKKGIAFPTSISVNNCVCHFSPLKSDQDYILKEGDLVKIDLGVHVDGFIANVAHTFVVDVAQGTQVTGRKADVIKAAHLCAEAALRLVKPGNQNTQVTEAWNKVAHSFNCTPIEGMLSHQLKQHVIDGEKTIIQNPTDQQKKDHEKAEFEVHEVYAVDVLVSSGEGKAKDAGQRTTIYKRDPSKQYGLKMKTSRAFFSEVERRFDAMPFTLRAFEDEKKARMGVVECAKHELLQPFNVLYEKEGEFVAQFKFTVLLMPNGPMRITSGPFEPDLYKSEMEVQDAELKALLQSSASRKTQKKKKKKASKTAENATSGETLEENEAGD
The conditions noted are these: Comp; protein PA2G4 Q9UQ80.

The mark [12] stands for this setting: protein ASNS (P08243), Exp Comp, analysis C6, p 0.1250, 4 peptides.
Where [13] appears, read: protein HSPA5 (P11021), Exp Comp, analysis C6, p 0.000244, 13 peptides.

Chain of proteins of HEK293T cells transiently overexpressing caspase-6 (Homo sapiens, UniProt P38646) (P38646 47-679): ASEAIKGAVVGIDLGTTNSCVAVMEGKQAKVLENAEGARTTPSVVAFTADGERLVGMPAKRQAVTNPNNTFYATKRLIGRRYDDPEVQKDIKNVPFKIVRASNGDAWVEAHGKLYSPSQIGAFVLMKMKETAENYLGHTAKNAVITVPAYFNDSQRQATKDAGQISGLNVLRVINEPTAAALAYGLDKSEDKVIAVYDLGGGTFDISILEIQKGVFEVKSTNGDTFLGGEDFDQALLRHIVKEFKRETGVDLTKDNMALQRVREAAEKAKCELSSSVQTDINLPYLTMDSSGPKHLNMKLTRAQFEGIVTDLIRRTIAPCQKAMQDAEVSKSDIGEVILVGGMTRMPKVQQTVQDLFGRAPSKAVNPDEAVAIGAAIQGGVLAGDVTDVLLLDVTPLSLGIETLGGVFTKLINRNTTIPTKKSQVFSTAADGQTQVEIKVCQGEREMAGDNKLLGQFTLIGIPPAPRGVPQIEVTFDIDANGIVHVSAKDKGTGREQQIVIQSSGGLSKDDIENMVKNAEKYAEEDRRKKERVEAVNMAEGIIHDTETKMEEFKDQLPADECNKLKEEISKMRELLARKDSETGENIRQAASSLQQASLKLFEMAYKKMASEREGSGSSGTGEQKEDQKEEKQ
Chain of proteins of HEK293T cells transiently overexpressing caspase-6 (Homo sapiens, UniProt P38919) (P38919 whole entry): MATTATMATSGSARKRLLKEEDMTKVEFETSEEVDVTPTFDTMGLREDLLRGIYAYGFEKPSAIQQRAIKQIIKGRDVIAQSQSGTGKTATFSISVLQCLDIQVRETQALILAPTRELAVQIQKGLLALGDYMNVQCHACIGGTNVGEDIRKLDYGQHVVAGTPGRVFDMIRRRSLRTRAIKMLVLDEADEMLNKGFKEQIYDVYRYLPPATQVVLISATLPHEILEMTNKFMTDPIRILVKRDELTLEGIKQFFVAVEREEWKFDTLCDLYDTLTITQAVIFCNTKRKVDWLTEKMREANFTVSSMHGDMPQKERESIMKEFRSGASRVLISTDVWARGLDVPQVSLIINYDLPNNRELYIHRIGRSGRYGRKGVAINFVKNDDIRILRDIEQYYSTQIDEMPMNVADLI

Regarding `C=CS(=O)(=O)N1C[C@H](C(=O)Nc2ccc(OC(F)(F)F)cc2)C[C@@H](c2ccccc2)C1` [3a], the enrich.exp.med in experiment [1] is 0.8565; in [2], 0.6522; in experiment [3], 0.6188; in [4] it was 0.6326; in experiment [5] it was 0.7888; in experiment [6] (Comp, protein ASNS P08243) it was 1.12. Further, the enrich.exp.med is 1.086 in experiment [7] (Comp, protein HSPA5 P11021); 0.6506 in [8]; 0.7351 in experiment [9]; 0.7098 in [10]; 0.7436 in experiment [11]. The enrich.exp.med.lin in experiment [6] (setting [12]) was 2.174; in experiment [7] (setting [13]), 2.123. Besides, the enrich.exp.med.log2 in [6] (setting [12]) worked out at 1.12; in experiment [7] (setting [13]) it was 1.086.
